{"source": "paper PMC4377999", "about": "“Kalkitoxin Inhibits Angiogenesis, Disrupts Cellular Hypoxic Signaling, and Blocks Mitochondrial Electron Transport in Tumor Cells” (Marine Drugs, 2015)", "molecular_target": "T1, mitochondrial electron transport chain complex I (NADH-ubiquinone oxidoreductase) (Homo sapiens, UniProt O75251+O75306+P03886)", "T1 construct": "gene NDUFS2; native multi-subunit complex in digitonin-permeabilized T47D cells", "assay": "oxygen consumption (Clark-type electrode) in permeabilized T47D cells with malate/pyruvate, succinate bypass; […]", "type": "cell-based"}
{"compound": "C=C[C@@H]1CSC(C[C@@H](C)[C@@H](C)C[C@H](C)CCN(C)C(=O)[C@H](C)CC)=N1", "note": "[kalkitoxin]", "values": [{"measurement": "oxygen consumption (Clark-type electrode) in permeabilized T47D cells with malat", "result": "kalkitoxin potently suppresses mitochondrial respiration in tumor cells by selectively inhibiting ETC complex I"}]}
